From patent US12338237B2, “Derivatives having 1,2,3,4-tetrahydronaphthalene moiety or pharmaceutically acceptable salt thereof and pharmaceutical compositions comprising the same” (YUHAN CORPORATION, priority 2019, dated 2025)
Where two headings read alike, the source gives them in different places.

Tests used:
[1] = target: glucosylceramide synthase (GCS) (Homo sapiens (Human), UniProt Q16739); assay: Evaluation of inhibitory activities against GCS (enzyme reaction with A549 cell lysate, NBD C6-ceramide, HPLC fluorescence); assay type: biochemical; settings: GCS activity in A549 cell lysate, 37° C. for 90 minutes
In short: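 Lysate of A549 cells in 50 mM HEPES pH 7.3 incubated with test compound and NBD C6-ceramide at 37 °C for 90 min; lipids extracted with chloroform/methanol and GlcCer and ceramide peaks quantified by HPLC fluorescence. Activity from GlcCer area fraction, normalised between DMSO and ibiglustat controls.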

GM1 production = assay: cells; assay type: cell-based

glucosylceramide synthase (GCS), sequence (Q16739 whole entry, looked up): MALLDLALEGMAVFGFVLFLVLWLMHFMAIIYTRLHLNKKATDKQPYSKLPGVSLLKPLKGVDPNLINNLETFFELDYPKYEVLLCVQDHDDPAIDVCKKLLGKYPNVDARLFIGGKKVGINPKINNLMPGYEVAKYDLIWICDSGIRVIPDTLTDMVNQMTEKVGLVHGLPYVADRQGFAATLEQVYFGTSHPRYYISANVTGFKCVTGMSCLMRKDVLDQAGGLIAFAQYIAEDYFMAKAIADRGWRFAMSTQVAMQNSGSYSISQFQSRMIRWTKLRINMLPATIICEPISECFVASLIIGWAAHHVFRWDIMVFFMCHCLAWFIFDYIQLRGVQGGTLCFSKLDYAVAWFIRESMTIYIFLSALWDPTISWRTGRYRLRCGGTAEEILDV

| SMILES | IC50 [1] | IC50 (GM1 production; Homo sapiens, Jurkat, 72 h) | IC50 (GM1 production; read-out: IC50) |
| --- | --- | --- | --- |
| CC1(C)CCc2cc(-c3ccc(OC(F)F)cc3)ccc2C1NC(=O)O[C@@H]1CN2CCC1CC2 (stereo partly drawn) [Example 99, (S)-quinuclidin-3-yl (6-(4-(difluoromethoxy)phenyl)-2,2-dimethyl-1,2,3,4-tetrahydronaphthalen-1-yl)carbamate] | 1.65 nM | 2.56 nM |  |
| CC1(C)CCc2cc(-c3ccc(F)c(F)c3)ccc2C1NC(=O)O[C@@H]1CN2CCC1CC2 (stereo partly drawn) [Example 100, (S)-quinuclidin-3-yl (6-(3,4-difluorophenyl)-2,2-dimethyl-1,2,3,4-tetrahydronaphthalen-1-yl)carbamate] | 1.78 nM | 2.59 nM |  |
| CC1(C)CCc2cc(-c3ccc(F)cc3F)ccc2C1NC(=O)O[C@@H]1CN2CCC1CC2 (stereo partly drawn) [Example 101, (S)-quinuclidin-3-yl (6-(2,4-difluorophenyl)-2,2-dimethyl-1,2,3,4-tetrahydronaphthalen-1-yl)carbamate] | 1.59 nM | 2.55 nM |  |
| CC1(C)CCc2cc(-c3cc(F)ccc3F)ccc2C1NC(=O)O[C@@H]1CN2CCC1CC2 (stereo partly drawn) [Example 103, (S)-quinuclidin-3-yl (6-(2,5-difluorophenyl)-2,2-dimethyl-1,2,3,4-tetrahydronaphthalen-1-yl)carbamate] | 0.95 nM | 0.997 nM |  |
| CC1(C)CCc2cc(-c3cc(F)cc(F)c3)ccc2C1NC(=O)O[C@@H]1CN2CCC1CC2 (stereo partly drawn) [Example 104, (S)-quinuclidin-3-yl (6-(3,5-difluorophenyl)-2,2-dimethyl-1,2,3,4-tetrahydronaphthalen-1-yl)carbamate] | 2.25 nM | 2.27 nM |  |
| CC1(C)CCc2cc(-c3cc(Cl)ccc3Cl)ccc2C1NC(=O)O[C@@H]1CN2CCC1CC2 (stereo partly drawn) [Example 105, (S)-quinuclidin-3-yl (6-(2,5-dichlorophenyl)-2,2-dimethyl-1,2,3,4-tetrahydronaphthalen-1-yl)carbamate] | 1.39 nM | 0.21 nM |  |
| CC1(C)CCc2cc(-c3ccc(Cl)c(Cl)c3)ccc2C1NC(=O)O[C@@H]1CN2CCC1CC2 (stereo partly drawn) [Example 106, (S)-quinuclidin-3-yl (6-(3,4-dichlorophenyl)-2,2-dimethyl-1,2,3,4-tetrahydronaphthalen-1-yl)carbamate] | 4.05 nM | 3.33 nM |  |
| CC1(C)CCc2cc(-c3cc(Cl)cc(Cl)c3)ccc2C1NC(=O)O[C@@H]1CN2CCC1CC2 (stereo partly drawn) [Example 107, (S)-quinuclidin-3-yl (6-(3,5-dichlorophenyl)-2,2-dimethyl-1,2,3,4-tetrahydronaphthalen-1-yl)carbamate] | 5.86 nM | 6.5 nM |  |
| CC1(C)CCc2cc(-c3cc(F)c(F)cc3F)ccc2C1NC(=O)O[C@@H]1CN2CCC1CC2 (stereo partly drawn) [Example 108, (S)-quinuclidin-3-yl (2,2-dimethyl-6-(2,4,5-trifluorophenyl)-1,2,3,4-tetrahydronaphthalen-1-yl)carbamate] | 2.55 nM | 6.7 nM |  |
| CC1(C)CCc2cc(-c3ccc(F)c(F)c3F)ccc2C1NC(=O)O[C@@H]1CN2CCC1CC2 (stereo partly drawn) [Example 109, (S)-quinuclidin-3-yl (2,2-dimethyl-6-(2,3,4-trifluorophenyl)-1,2,3,4-tetrahydronaphthalen-1-yl)carbamate] | 2.89 nM | 2.97 nM |  |
| COCCOc1ccc(-c2ccc3c(c2)CCC(C)(C)C3NC(=O)O[C@@H]2CN3CCC2CC3)cc1 (stereo partly drawn) [Example 110, (S)-quinuclidin-3-yl (6-(4-(2-methoxyethoxy)phenyl)-2,2-dimethyl-1,2,3,4-tetrahydronaphthalen-1-yl)carbamate] | 0.64 nM | 0.29 nM |  |
| COCCOc1cccc(-c2ccc3c(c2)CCC(C)(C)C3NC(=O)O[C@@H]2CN3CCC2CC3)c1 (stereo partly drawn) [Example 111, (S)-quinuclidin-3-yl (6-(3-(2-methoxyethoxy)phenyl)-2,2-dimethyl-1,2,3,4-tetrahydronaphthalen-1-yl)carbamate] | 2.36 nM | 1.84 nM |  |
| COCCOc1ccccc1-c1ccc2c(c1)CCC(C)(C)C2NC(=O)O[C@@H]1CN2CCC1CC2 (stereo partly drawn) [Example 112, (S)-quinuclidin-3-yl (6-(2-(2-methoxyethoxy)phenyl)-2,2-dimethyl-1,2,3,4-tetrahydronaphthalen-1-yl)carbamate] | 3.75 nM | 0.802 nM |  |
| COCOc1ccc(-c2ccc3c(c2)CCC(C)(C)C3NC(=O)O[C@@H]2CN3CCC2CC3)cc1 (stereo partly drawn) [Example 113, (S)-quinuclidin-3-yl (6-(4-(methoxymethoxy)phenyl)-2,2-dimethyl-1,2,3,4-tetrahydronaphthalen-1-yl)carbamate] | 0.94 nM | 0.964 nM |  |
| COCOc1cccc(-c2ccc3c(c2)CCC(C)(C)C3NC(=O)O[C@@H]2CN3CCC2CC3)c1 (stereo partly drawn) [Example 114, (S)-quinuclidin-3-yl (6-(3-(methoxymethoxy)phenyl)-2,2-dimethyl-1,2,3,4-tetrahydronaphthalen-1-yl)carbamate] | 1.8 nM | 1.27 nM |  |
| COCOc1ccccc1-c1ccc2c(c1)CCC(C)(C)C2NC(=O)O[C@@H]1CN2CCC1CC2 (stereo partly drawn) [Example 115, (S)-quinuclidin-3-yl (6-(2-(methoxymethoxy)phenyl)-2,2-dimethyl-1,2,3,4-tetrahydronaphthalen-1-yl)carbamate] | 1.17 nM | 0.56 nM |  |

| SMILES | IC50 [1] | IC50 (GM1 production; Homo sapiens, Jurkat, 72 h) | IC50 (GM1 production; read-out: IC50) |
| --- | --- | --- | --- |
| COc1cc(-c2ccc3c(c2)CCC(C)(C)C3NC(=O)O[C@@H]2CN3CCC2CC3)ccn1 (stereo partly drawn) [Example 116, (S)-quinuclidin-3-yl (6-(2-methoxypyridin-4-yl)-2,2-dimethyl-1,2,3,4-tetrahydronaphthalen-1-yl)carbamate] | 8.62 nM | 7.76 nM |  |
| Cc1cc(-c2ccc3c(c2)CCC(C)(C)C3NC(=O)O[C@@H]2CN3CCC2CC3)ccn1 (stereo partly drawn) [Example 117, (S)-quinuclidin-3-yl (2,2-dimethyl-6-(2-methylpyridin-4-yl)-1,2,3,4-tetrahydronaphthalen-1-yl)carbamate] | 30.3 nM | 37.8 nM |  |
| CC1(C)CCc2cc(-c3ccnc(F)c3)ccc2C1NC(=O)O[C@@H]1CN2CCC1CC2 (stereo partly drawn) [Example 118, (S)-quinuclidin-3-yl (6-(2-fluoropyridin-4-yl)-2,2-dimethyl-1,2,3,4-tetrahydronaphthalen-1-yl)carbamate] | 17 nM | 12.4 nM |  |
| CC1(C)CCc2cc(-c3ccnc(C(F)(F)F)c3)ccc2C1NC(=O)O[C@@H]1CN2CCC1CC2 (stereo partly drawn) [Example 119, (S)-quinuclidin-3-yl (2,2-dimethyl-6-(2-(trifluoromethyl)pyridin-4-yl)-1,2,3,4-tetrahydronaphthalen-1-yl) carbamate] | 11.2 nM |  | 1.86 nM |
| COc1ccc(-c2ccc3c(c2)CCC(C)(C)C3NC(=O)O[C@@H]2CN3CCC2CC3)cc1 (stereo partly drawn) [Example 120, (S)-quinuclidin-3-yl (6-(4-methoxyphenyl)-2,2-dimethyl-1,2,3,4-tetrahydronaphthalen-1-yl)carbamate] | 5.65 nM | 1.83 nM |  |
| COc1cccc(-c2ccc3c(c2)CCC(C)(C)C3NC(=O)O[C@@H]2CN3CCC2CC3)c1 (stereo partly drawn) [Example 121, (S)-quinuclidin-3-yl (6-(3-methoxyphenyl)-2,2-dimethyl-1,2,3,4-tetrahydronaphthalen-1-yl)carbamate] | 5.51 nM | 0.0387 nM |  |
| CCOc1cccc(-c2ccc3c(c2)CCC(C)(C)C3NC(=O)O[C@@H]2CN3CCC2CC3)c1 (stereo partly drawn) [Example 122, (S)-quinuclidin-3-yl (6-(3-ethoxyphenyl)-2,2-dimethyl-1,2,3,4-tetrahydronaphthalen-1-yl)carbamate] | 3.38 nM | 0.774 nM |  |
| COc1ccc(-c2ccc3c(c2)CCC(C)(C)C3NC(=O)O[C@@H]2CN3CCC2CC3)c(Cl)c1 (stereo partly drawn) [Example 123, (S)-quinuclidin-3-yl (6-(2-chloro-4-methoxyphenyl)-2,2-dimethyl-1,2,3,4-tetrahydronaphthalen-1-yl)carbamate] | 0.97 nM | 1.43 nM |  |
| COc1cc(-c2ccc3c(c2)CCC(C)(C)C3NC(=O)O[C@@H]2CN3CCC2CC3)ccc1Cl (stereo partly drawn) [Example 124, (S)-quinuclidin-3-yl (6-(4-chloro-3-methoxyphenyl)-2,2-dimethyl-1,2,3,4-tetrahydronaphthalen-1-yl)carbamate] | 1.6 nM | 3.35 nM |  |
| COc1ccc(Cl)c(-c2ccc3c(c2)CCC(C)(C)C3NC(=O)O[C@@H]2CN3CCC2CC3)c1 (stereo partly drawn) [Example 125, (S)-quinuclidin-3-yl (6-(2-chloro-5-methoxyphenyl)-2,2-dimethyl-1,2,3,4-tetrahydronaphthalen-1-yl)carbamate] | 1.1 nM | 2.04 nM |  |
| COc1ccc(-c2ccc3c(c2)CCC(C)(C)C3NC(=O)O[C@@H]2CN3CCC2CC3)cc1F (stereo partly drawn) [Example 126, (S)-quinuclidin-3-yl (6-(3-fluoro-4-methoxyphenyl)-2,2-dimethyl-1,2,3,4-tetrahydronaphthalen-1-yl)carbamate] | 0.83 nM | 1.89 nM |  |
| CCc1cccc(-c2ccc3c(c2)CCC(C)(C)C3NC(=O)O[C@@H]2CN3CCC2CC3)c1 (stereo partly drawn) [Example 127, (S)-quinuclidin-3-yl (6-(3-ethylphenyl)-2,2-dimethyl-1,2,3,4-tetrahydronaphthalen-1-yl)carbamate] | 1.92 nM | 2 nM |  |
| CC(C)(C)c1cccc(-c2ccc3c(c2)CCC(C)(C)C3NC(=O)O[C@@H]2CN3CCC2CC3)c1 (stereo partly drawn) [Example 128, (S)-quinuclidin-3-yl (6-(3-(tert-butyl)phenyl)-2,2-dimethyl-1,2,3,4-tetrahydronaphthalen-1-yl)carbamate] | 2.84 nM | 1.3 nM |  |
| CC(C)c1cccc(-c2ccc3c(c2)CCC(C)(C)C3NC(=O)O[C@@H]2CN3CCC2CC3)c1 (stereo partly drawn) [Example 129, (S)-quinuclidin-3-yl (6-(3-isopropylphenyl)-2,2-dimethyl-1,2,3,4-tetrahydronaphthalen-1-yl)carbamate] | 2.08 nM | 1.3 nM |  |
| CC1(C)CCc2cc(-c3cccc(C(F)F)c3)ccc2C1NC(=O)O[C@@H]1CN2CCC1CC2 (stereo partly drawn) [Example 130, (S)-quinuclidin-3-yl (6-(3-(difluoromethyl)phenyl)-2,2-dimethyl-1,2,3,4-tetrahydronaphthalen-1-yl)carbamate] | 1.24 nM | 1.3 nM |  |
